In patent US10100088B2, “Glycopeptide derivatives for the preservation and protection of biological materials and microorganisms” (TFCHEM, priority 2014, dated 2018):
Where two headings read alike, the source gives them in different places.

Columns and labels:
[1] = system: neonatal skin fibroblasts (CCD-27SK, ATCC CRL-1475); conditions: for Percentage of viability: 5 mg/mL in serum free medium
Procedure: II-1. Effect of Glycopeptide 17 on the Preservation/Protection of Neonatal Skin Fibroblasts Under Starvation Conditions. Evaluation by Trypan Blue Exclusion Method.
• The neonatal skin fibroblasts (Cell line: CCD-27SK, ATCC number CRL-1475) were grown with DMEM medium supplemented with Fetal Bovine Serum 10% final, antibiotics (Penicillin/Streptomycin) 1% final and Amphotericin B 0.1% final. • Fibroblasts were grown in 75 cm^2 culture flask to 80% confluence, in 37° C. and 10% CO2 incubator. The medium was changed every two days by 37° C. preheated fresh medium. Starvation Medium • This medium was composed of 45% subculturing medium without Fetal Bovine Serum mixed with 55% of Phosphate Buffer Saline 1× containing EDTA (final concentration of 0.45 mM). This was referred to as serum-free medium. Product Preparation • Compound 17 (MM=603.4 g/mol) was diluted in starvation medium to 5 mg/ml final and pH was adjusted at 7.4 by addition of NaOH 1N. General Experimental Procedure Assays on 96 Well Plates • Fibroblast cells were concentrated to 2.10^5 cells/ml and 100 μl of cell suspension was added in wells of a 96-well plate and incubated in 37° C. and 10% CO2 incubator for 4 hours. • After cell adhesion the medium was changed and plates were incubated (37° C.-10% CO2) to perform the assay as follow: • One plate for each sampling times: D0, D3, D4, D5, D6, D7, D10, D12 days • Three wells for each condition (triplicate count) added with 120 μl of culture medium (surviving control), starvation medium (serum-free control) or compound 17 solution at 5 mg/ml. […] So, only the dead cells are blue at microscopic observation. • For sampling, 110 μl of Trypan Blue (SIGMA T8154) was added to 110 μl of trypsinated cell suspension of matching well for counting. • […] of the trypan blue/cell mixture are dropped to a hemacytometer. Cells are counting by using a Neubauer-counting chamber. The unstained (viable) and stained (nonviable) cells are counted separately on 9 areas of 1 mm^2 forming a large square of 9 mm^2 and added to obtain the total number of cells per sample. An average of three counts was used to calculate the viability percentage as: [Number of viable cells/total number of cells]*100 • The cell viability percentages from cultures under starvation conditions were compared with control culture for several days after their addition (D0, D3, D4, D5, D6, D7, D10, D12).

[2] = system: human neonatal skin fibroblasts; experiment: UV stress (11 J/cm^2), neutral red uptake viability; format: cell-based
Procedure: The neutral red uptake assay was used for the determination of cell viability. This assay is based on the ability of viable cells to incorporate and bind the supravital dye neutral red in its lysosomes. So, only the viable cells are dyed. At different times after the stress assay (T0), the plates were incubated with neutral red solution for 3.5 hours. The cells are subsequently washed, the dye is extracted in each well and the absorbance is read using a spectrophotometer.
For sampling, 1 mL of DMEM (without phenol red indicator) with neutral red (OD=0.110) was added to the cells for 3.5 hours (37° C., 10% CO2). After incubation, the medium was removed, two washes of PBS were realized and 1 mL of extraction solution (absolute ethanol 49%, ultrapure water 49%, glacial acetic acid 2%) was added. Plates were placed 15 minutes on rotary shaker in the dark before reading OD at 540 nm.
The percentage of viability for each assay was calculated as follow: % viability assay=(OD540 nm of tested solution−blank)*100/(OD540 nm of positive control−blank).

[3] = Comparative stability towards basic conditions (NaOD in D2O), 1H NMR; format: physicochemical
Procedure: In a first set of experiments (experiments 1 to 7 in table 9), X (10 mg, 1.72 10^−2 mmol) was reacted with 2 to 8 equivalents of NaOD in a total volume of 355 μL of deuterium oxide ([X]=4.8 10^−2 mmol·mL^−1) during 2 h 30 before being acidified with 1M DCl in D2O. To be sure that all compounds in solution are in their acidic form, the equivalents of DCl are adjusted to 3 more equivalents of DCl than the amount required to neutralize the solution (nDCl=nNaOD+3). The volume was adjusted to 544 μL with deuterium oxide.
In a second set of experiments (experiments 8 to 14 in table 9), 17 (10 mg, 1.66 10^−2 mmol) was reacted with 2 to 8 equivalents of NaOD in a total volume of 343 μL of deuterium oxide ([17]=4.8 10^−2 mmol·mL^−1) during 2 h 30 before being acidified with 1M DCl in D2O. To be sure that all compounds in solution are in their acidic form, the equivalents of DCl are adjusted to 3 more equivalents of DCl than the amount required to neutralize the solution (nDCl=nNaOD+3). The volume was adjusted to 526 μL with deuterium oxide.
^1H NMR analyses were performed on each experiment. It is why experiments were realized in deuterium oxide and using 1M NaOD in D2O as base and 1M DCl in D2O as acid.
^1H NMR allows indeed the determination of the amount of compound X1 formed, by comparison between the integration corresponding to the methylene group of the lysine side chain connected to the nitrogen atom in X (CH2NGP) (3.3 ppm) and the integrationof the same methylene group in X1 (CH2Lys hydrolyzed) (3.0 ppm).
To confirm the structure of compounds X1 and X2, resulting from hydrolysis of X, the following experiment was realized, in which X (10 mg, 1.72 10^−2 mmol) was reacted with 8 equivalents of NaOD in a total volume of 355 μL of deuterium oxide ([X]=4.8 10^−2 mmol·mL^−1) during 3 days before being acidified with 1M DCl in D2O. In these conditions, almost the totality of compound X is hydrolyzed, the percentage of hydrolysis of compound X being 85% as determined by ^1H NMR as evidence in table 11.

C[C@H](NC(=O)[C@H](C)NC(=O)[C@@H](N)CCCCNCC(F)(F)C1(O)O[C@H](CO)[C@H](O)[C@H](O)[C@H]1O)C(=O)O.Cl.Cl (stereo partly shown) [Compound 17]
Percentage of viability ([1]; D 0): 96.69 ± 1.85%
Percentage of viability ([1]; D 0, listed as compound 17): 97%
Percentage of viability ([1]; D 3): 91.03 ± 1.88%
Percentage of viability ([1]; D 4): 88.98 ± 2.48%
Percentage of viability ([1]; D 5): 86.65 ± 4.26%
Percentage of viability ([1]; D 6): 85.53 ± 1.57%
Percentage of viability ([1]; D 7): 83.20 ± 3.72%
Percentage of viability ([1]; D 10): 80.62 ± 3.72%
Percentage of viability ([1]; D 12): 77.03 ± 2.02%
Percentage of viability ([1]; D 12, listed as compound 17): 77%
preservative/protective effect on skin fibroblasts (in words) ([1]; starvation medium, 5 mg/ml, 12 days): significant preservative/protective effect
preservative/protective effect against UV stress (in words) [2]: preservative/protective effect against UV stress
Percentage of viability following UV stress (11 J/cm^2) ([2]; 1 h after irradiation, 5 mg/mL): 55%
Percentage of viability following UV stress (11 J/cm^2) ([2]; 1 h after irradiation, 10 mg/mL): 53%
Percentage of viability following UV stress (11 J/cm^2) ([2]; 1 h after irradiation, 15 mg/mL): 50%
Percentage of viability following UV stress (11 J/cm^2) ([2]; 3 h after irradiation, 5 mg/mL): 63%
Percentage of viability following UV stress (11 J/cm^2) ([2]; 3 h after irradiation, 10 mg/mL): 46%
Percentage of viability following UV stress (11 J/cm^2) ([2]; 3 h after irradiation, 15 mg/mL): 50%
Percentage of viability following UV stress (11 J/cm^2) ([2]; 24 h after irradiation, 5 mg/mL): 82%
Percentage of viability following UV stress (11 J/cm^2) ([2]; 24 h after irradiation, 10 mg/mL): 94%
Percentage of viability following UV stress (11 J/cm^2) ([2]; 24 h after irradiation, 15 mg/mL): 84%
growth or regenerative effect on stressed cells (in words) ([2]; viability increased in time after UV): growth or regenerative effect
% hydrolyzed ([3]; 2 eq NaOD, 2 h 30, D2O): 0%
stability towards basic conditions (in words) ([3]; 2 to 8 eq NaOD, 2 h 30, 1H NMR): absence of degradation
% hydrolyzed ([3]; 3 eq NaOD, 2 h 30, D2O): 0%
% hydrolyzed ([3]; 4 eq NaOD, 2 h 30, D2O): 0%
% hydrolyzed ([3]; 5 eq NaOD, 2 h 30, D2O): 0%
% hydrolyzed ([3]; 6 eq NaOD, 2 h 30, D2O): 0%
% hydrolyzed ([3]; 7 eq NaOD, 2 h 30, D2O): 0%
% hydrolyzed ([3]; 8 eq NaOD, 2 h 30, D2O): 0%
% hydrolyzed ([3]; Control, 0 eq NaOD): 0%
